# Values quoted from earlier work as cited in US11351146B2, “Topical compositions for the treatment of cutaneous leishmaniasis” (AC BIOSCIENCE SA, priority 2017, dated 2022).
# Key:
# [1] = tested on: L. mexicana, L. infantum and L. major promastigotes
# intracellular amastigote = conditions: versus glucantime
structure (smiles),measurement,setting,value
"CCOC(=O)c1cccc(NC(=O)CCl)c1 [MF 29, 3-(2-chloroacetamido) ethyl benzoate]",effect on promastigotes strains,"[1]; L. mexicana, L. infantum and L. major promastigotes",high effect
same,fold more active than glucantime,"[1]; promastigote, versus glucantime",400 fold
same,fold more active than glucantime,intracellular amastigote,400 fold
